Laboratory results published in patent US4997847A, “Biologically active compounds” (Smith Kline & French Laboratories Limited, priority 1987, dated 1991).
pIC50: −log10 of the molar value.

Biological target: T1, TXA2 receptors (Homo sapiens, UniProt P21731)
T1 construct: to Washed Human Platelets; endogenous in cells; host or cells: washed human platelets
T1 sequence (P21731 1-343): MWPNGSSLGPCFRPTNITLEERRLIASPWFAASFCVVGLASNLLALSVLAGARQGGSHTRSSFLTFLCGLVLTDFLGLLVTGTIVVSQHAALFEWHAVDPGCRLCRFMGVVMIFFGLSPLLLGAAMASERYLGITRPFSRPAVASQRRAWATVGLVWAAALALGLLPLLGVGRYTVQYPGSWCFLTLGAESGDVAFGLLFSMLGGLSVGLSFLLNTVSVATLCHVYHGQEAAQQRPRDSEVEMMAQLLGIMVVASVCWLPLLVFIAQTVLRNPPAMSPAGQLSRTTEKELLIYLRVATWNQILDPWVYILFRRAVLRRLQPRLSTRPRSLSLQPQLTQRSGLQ
Experiment: Human platelet binding assay: inhibition of [^125 I]PTA-OH binding to washed human platelets
Conditions: [^125 I]PTA-OH as receptor ligand, 50% inhibition of specific binding
From the text: As indicated above, compounds of the formula (I) have biological activity that is indicative of an ability to antagonise TXA2 receptors.
The platelet binding assay used was essentially the method described by Mais et al, J. Pharm. Exp. Ther., 1985, 235(3), 729-734 where [^125 I]PTA-OH was used as the receptor ligand.
The IC50 values represent the concentration which produces a 50% inhibition of specific [^125 I]PTA-OH binding.
The activities of the compounds of the present invention in the assay are described in Example 33.
Inhibition of [^125 I]PTA-OH Binding
to Washed Human Platelets

pIC50 | SMILES
6.52 | COc1ccc(S(=O)(=O)NCCCCCCCC(=O)O)cc1 [Example 17, 8-(4-Methoxybenzenesulphonamido)octanoic Acid]
7.15 | O=C(O)CCCCCCCNS(=O)(=O)c1ccc(Cl)c(Cl)c1 [Example 18, 8-(3,4-Dichlorobenzenesulphonamido)octanoic Acid]
6.22 | O=C(O)CCCCCCCCCCNS(=O)(=O)c1ccc(Cl)cc1 [Example 19, 11-(4-Chlorobenzenesulphonamido)undecanoic Acid]
5.72 | O=C(O)CCCCCCCCCCNS(=O)(=O)c1cccc(Cl)c1 [Example 20, 11-(3-Chlorobenzenesulphonamido)undecanoic Acid]
7.12 | Cc1ccc(S(=O)(=O)NCCCCCCCC(=O)O)cc1 [Example 21, 8-(4-tolylsulphonamido)octanoic acid]
6.60 | O=C(O)CCCCCCCCNS(=O)(=O)c1cccc(Cl)c1 [Example 23, 9-(3-Chlorobenzenesulphonamido)nonanoic Acid]
7.22 | O=C(O)CCCCCCCCCNS(=O)(=O)c1ccc(Cl)cc1 [Example 24, 10-(4-Chlorobenzenesulphonamido)decanoic Acid]
6.66 | O=C(O)CCCCCCCNS(=O)(=O)c1ccc(F)cc1 [Example 25, 8(4-Fluorobenzenesulphonamido)octanoic Acid]
7.40 | O=C(O)CCCCCCCCNS(=O)(=O)c1ccc(Br)cc1 [Example 26, 9-(4-Bromobenzenesulphonamido)nonanoic Acid]
7.40 | O=C(O)CCCCCCCNS(=O)(=O)c1ccc(Cl)s1 [Example 29, 8-(5-Chloro-2-thienylsulphonamido)octanoic Acid]
6.44 | CC(C)(CCCCCCCNS(=O)(=O)c1ccc(Cl)cc1)C(=O)O [Example 30, 9-(4-Chlorophenylsulphonamido)-2,2-dimethylnonanoic Acid]
6.48 | CC(C)(CCCCCNS(=O)(=O)c1ccc(Cl)cc1)C(=O)O [Example 31, 7-(4-Chlorophenylsulphonamido)-2,2-dimethylheptanoic Acid]
6.19 | O=C(O)CCCCCCCNS(=O)(=O)c1cc(Cl)sc1Cl [Example 32, 8-(2,5-Dichloro-3-thienylsulphonamido)octanoic Acid]

Further lines, the compound ahead of its results:

SMILES | pIC50
O=C(O)CCCCCCNS(=O)(=O)c1ccccc1 [Example 1, 7-(Benzenesulphonamido)heptanoic Acid] | 5.64
O=C(O)CCCCCCCNS(=O)(=O)c1ccccc1 [Example 2, 8-(Benzenesulphonamido)octanoic Acid] | 6.54
O=C(O)CCCCCCCNS(=O)(=O)c1ccc(Cl)cc1 [Example 3, 8-(4-Chlorobenzenesulphonamido)octanoic Acid] | 7.52
O=C(O)CCCCCNS(=O)(=O)c1ccccc1 [Example 4, 6-(Benzenesulphonamido)hexanoic Acid] | 4.21
CC(C)(CCCCCCNS(=O)(=O)c1ccc(Cl)cc1)C(=O)O [Example 5, 8-(4-Chlorobenzenesulphonamido)-2,2-dimethyloctanoic Acid] | 6.82
O=C(O)CCCCCCCCNS(=O)(=O)c1ccc(Cl)cc1 [Example 6, 9-(4-Chlorobenzenesulphonamido)nonanoic Acid] | 7.74
O=C(O)CCCCCCCCNS(=O)(=O)c1ccccc1 [Example 7, 9-(Benzenesulphonamido)nonanoic Acid] | 6.55
O=C(O)CCCC#CCNS(=O)(=O)c1ccc(Cl)cc1 [Example 8, 7-(4-Chlorobenzenesulphonamido)hept-5-ynoic Acid] | 5.27
O=C(O)CCC/C=C\CNS(=O)(=O)c1ccc(Cl)cc1 [Example 9, (Z)-7-(4-Chlorobenzenesulphonamido)hept-5-enoic Acid] | 5.80
CC(C)(CCCCCCCCNS(=O)(=O)c1ccc(Cl)cc1)C(=O)O [Example 10, 2,2-Dimethyl-10-(4-chlorobenzenesulphonamido)decanoic Acid] | 6.33
O=C(O)CCCCCCCCCCCNS(=O)(=O)c1ccc(Cl)cc1 [Example 11, 12-(4-Chlorobenzenesulphonamido)-dedecanoic Acid] | 5.15
CC(C)(CCCCCNS(=O)(=O)c1ccc(Cl)cc1)CC(=O)O [Example 12, 8-(4-Chlorobenzenesulphonamido)-3,3-dimethyloctanoic Acid] | 6.22
O=C(O)CCCCCCNS(=O)(=O)c1ccc(Cl)cc1 [Example 13, 7-(4-Chlorobenzenesulphonamido)heptanoic Acid] | 6.57
O=C(O)CCCCCCCNS(=O)(=O)c1cccc(Cl)c1 [Example 14, 8-(3-Chlorobenzenesulphonamido)octanoic Acid] | 6.80
O=C(O)CCCCCCCNS(=O)(=O)c1ccc([N+](=O)[O-])cc1 [Example 15, 8-(4-Nitrobenzenesulphonamido)octanoic Acid] | 6.96
O=C(O)CCCCCCCNS(=O)(=O)c1ccc(Br)cc1 [Example 16, 8-(4-Bromobenzenesulphonamido)octanoic Acid] | 7.70
